# Experiments:
# CFTR = target: T1, CFTR (Homo sapiens, UniProt P13569, DEL508-508); experiment: TECC24 AUC fold over DMSO @10 μM, CFTR-mediated transepithelial chloride transport in CF-HBE cells; format: cell-based; conditions: test agent AUC divided by DMSO vehicle AUC, primary CF-HBE cells, ΔF508 homozygous donor, 48 hours incubation
# T1 construct: Primary human bronchial epithelial cells from a ΔF508 homozygous CF donor; host or cells: primary human bronchial epithelial cells (CF-HBE), ΔF508 homozygous donor
# Outline: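 Value is ratio of test-agent to DMSO AUC of equivalent transepithelial Cl− current, integrated from forskolin (10 μM) stimulation to CFTR inhibitor-172 (20 μM) block, with benzamil 10 μM present. CF-HBE (ΔF508/ΔF508) cultures had 48 h compound exposure at 10 μM, 36.5° C before recording.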
# NBD1 = target: T2, NBD1 (Homo sapiens, UniProt P13569); experiment: Aggregation analysis using differential static light scattering (DSLS), thermal stability of NBD1 (ΔTagg); format: binding; conditions: ΔTagg versus DMSO control, NBD1 0.2 mg/ml
# T2 construct: Purified recombinant NBD1 was produced using previously described methods; made in house
# Outline: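 Differential static light scattering read from 25° C. to 70° C. every 0.5° C., ramp 1° C./min, on recombinant NBD1 (0.2 mg/ml; Tris/NaCl/MgCl2 buffer with 2 mM ATP, 2 mM DTT, pH 7.6, 1% glycerol) plus compound. Reported ΔTagg subtracts averaged DMSO Tagg from inflection-point Tagg; categories A ≤5, B >5-10, C >10-25° C.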
# T1 sequence (P13569 with tags, fused parts or gaps DEL508-508): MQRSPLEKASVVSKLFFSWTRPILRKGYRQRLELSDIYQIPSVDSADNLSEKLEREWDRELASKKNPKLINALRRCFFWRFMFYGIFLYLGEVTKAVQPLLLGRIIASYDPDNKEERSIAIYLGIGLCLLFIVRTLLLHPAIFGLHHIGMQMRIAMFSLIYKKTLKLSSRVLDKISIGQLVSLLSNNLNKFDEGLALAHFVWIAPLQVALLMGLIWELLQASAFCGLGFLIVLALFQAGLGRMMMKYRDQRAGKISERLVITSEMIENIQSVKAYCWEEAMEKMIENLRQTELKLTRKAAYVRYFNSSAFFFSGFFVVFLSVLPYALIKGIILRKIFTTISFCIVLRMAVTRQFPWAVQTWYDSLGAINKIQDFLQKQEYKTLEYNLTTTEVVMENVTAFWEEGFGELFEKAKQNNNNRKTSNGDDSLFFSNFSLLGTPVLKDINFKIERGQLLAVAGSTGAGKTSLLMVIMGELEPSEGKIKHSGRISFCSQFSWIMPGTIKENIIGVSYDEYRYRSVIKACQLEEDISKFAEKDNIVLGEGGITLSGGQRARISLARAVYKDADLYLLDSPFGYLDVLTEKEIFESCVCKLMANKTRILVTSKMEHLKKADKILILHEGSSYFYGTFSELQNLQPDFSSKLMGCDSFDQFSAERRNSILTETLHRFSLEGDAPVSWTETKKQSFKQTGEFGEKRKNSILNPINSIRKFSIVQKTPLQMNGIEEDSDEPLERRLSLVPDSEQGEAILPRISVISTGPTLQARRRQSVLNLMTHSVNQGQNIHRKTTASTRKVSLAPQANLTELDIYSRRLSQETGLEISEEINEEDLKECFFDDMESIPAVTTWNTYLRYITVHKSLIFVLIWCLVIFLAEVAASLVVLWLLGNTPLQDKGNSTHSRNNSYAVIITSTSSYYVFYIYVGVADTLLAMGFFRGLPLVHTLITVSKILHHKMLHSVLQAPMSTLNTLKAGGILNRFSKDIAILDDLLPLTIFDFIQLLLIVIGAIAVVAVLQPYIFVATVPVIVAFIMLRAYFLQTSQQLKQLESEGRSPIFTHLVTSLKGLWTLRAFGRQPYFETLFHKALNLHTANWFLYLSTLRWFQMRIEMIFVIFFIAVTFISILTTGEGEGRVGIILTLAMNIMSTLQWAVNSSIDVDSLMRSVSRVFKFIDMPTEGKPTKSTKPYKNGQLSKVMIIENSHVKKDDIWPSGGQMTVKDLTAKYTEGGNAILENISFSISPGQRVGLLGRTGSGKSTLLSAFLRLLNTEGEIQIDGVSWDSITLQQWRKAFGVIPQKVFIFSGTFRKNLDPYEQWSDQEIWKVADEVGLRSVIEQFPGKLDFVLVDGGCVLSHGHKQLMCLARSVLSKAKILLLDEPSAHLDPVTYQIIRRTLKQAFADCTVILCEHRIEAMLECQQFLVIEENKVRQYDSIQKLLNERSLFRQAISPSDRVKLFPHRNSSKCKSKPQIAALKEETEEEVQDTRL
# T2 sequence (P13569 423-646 limits assumed): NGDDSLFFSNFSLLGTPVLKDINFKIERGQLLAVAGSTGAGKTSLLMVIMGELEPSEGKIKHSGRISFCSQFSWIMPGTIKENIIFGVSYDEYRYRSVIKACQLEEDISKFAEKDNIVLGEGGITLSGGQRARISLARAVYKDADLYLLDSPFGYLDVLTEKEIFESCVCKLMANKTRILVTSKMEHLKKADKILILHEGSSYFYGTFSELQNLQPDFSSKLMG
SMILES,"TECC (AUC, 10 μM) (CFTR)",DSLS 3D (100 μM ΔT) (NBD1)
"CC(Cc1cccc(C2(C)CCCC(C)(C)CS(=O)(=O)CCc3c(c(F)cc4[nH]ccc34)Sc3ccc(F)c(c3)-c3nc2nn3C)c1)C(=O)O (single isomer, unassigned) [Compound 33A, 3-[3-(22,28-difluoro-3,6,10,10-tetramethyl-12,12-dioxo-12lambda6,24-dithia-3,4,19,30-tetrazapentacyclo[23.3.1.12,5.015,23.016,20]triaconta-1(29),2(30),4,15,17,20,22,25,27-nonaen-6-yl)phenyl]-2-methyl-propanoic Acid]",C (a value between 20 and 80 is marked “C”),C (a value greater than 10 °C and less than or equal to 25 °C is marked “C”)
"CC(Cc1cccc(C2(C)CCCC(C)(C)CS(=O)(=O)CCc3c(c(F)cc4[nH]ccc34)Sc3ccc(F)c(c3)-c3nc2nn3C)c1)C(=O)O (single isomer, unassigned) [Compound 33B, 3-[3-(22,28-difluoro-3,6,10,10-tetramethyl-12,12-dioxo-12lambda6,24-dithia-3,4,19,30-tetrazapentacyclo[23.3.1.12,5.015,23.016,20]triaconta-1(29),2(30),4,15,17,20,22,25,27-nonaen-6-yl)phenyl]-2-methyl-propanoic Acid]",A (a TECC value less than 12 is marked “A”),B (a value above 5 °C and less than or equal to 10 °C is marked “B”)
"CC(Cc1cccc(C2(C)CCCC(C)(C)CS(=O)(=O)CCc3c(c(F)cc4[nH]ccc34)S(=O)(=O)c3ccc(F)c(c3)-c3nc2nn3C)c1)C(=O)O (single isomer, unassigned) [Compound 34A, 3-[3-(22,28-difluoro-3,6,10,10-tetramethyl-12,12,24,24-tetraoxo-12lambda6,24lambda6-dithia-3,4,19,30-tetrazapentacyclo[23.3.1.12,5.015,23.016,20]triaconta-1(29),2(30),4,15,17,20,22,25,27-nonaen-6-yl)phenyl]-2-methyl-propanoic Acid]",C (a value between 20 and 80 is marked “C”),C (a value greater than 10 °C and less than or equal to 25 °C is marked “C”)
"CC(Cc1cccc(C2(C)CCCC(C)(C)CS(=O)(=O)CCc3c(c(F)cc4[nH]ccc34)S(=O)(=O)c3ccc(F)c(c3)-c3nc2nn3C)c1)C(=O)O (single isomer, unassigned) [Compound 34B, 3-[3-(22,28-difluoro-3,6,10,10-tetramethyl-12,12,24,24-tetraoxo-12lambda6,24lambda6-dithia-3,4,19,30-tetrazapentacyclo[23.3.1.12,5.015,23.016,20]triaconta-1(29),2(30),4,15,17,20,22,25,27-nonaen-6-yl)phenyl]-2-methyl-propanoic Acid]",A (a TECC value less than 12 is marked “A”),A (an ΔTagg value less than or equal to 5 °C is marked “A”)
"CC1(C)CCCCC(C)(c2cccc(CCC(=O)O)c2)c2cnc([nH]2)-c2cc(ccc2F)Oc2c(F)cc3[nH]ccc3c2CCS(=O)(=O)C1 (single isomer, unassigned) [Compound 43A, 3-[3-(23,29-difluoro-6,11,11-trimethyl-13,13-dioxo-25-oxa-13lambda6-thia-3,20,31-triazapentacyclo[24.3.1.12,5.016,24.017,21]hentriaconta-1(30),2,4,16,18,21,23,26,28-nonaen-6-yl)phenyl]propanoic Acid]",A (a TECC value less than 12 is marked “A”),A (an ΔTagg value less than or equal to 5 °C is marked “A”)
"CC1(c2cccc(CCC(=O)O)c2)CCCC2(CC2)CS(=O)(=O)CCc2c(c(F)cc3[nH]ccc23)Oc2ccc(F)c(c2)-c2ncc1[nH]2 (single isomer, unassigned) [Compound 45A, 3-[3-(22,28-difluoro-6-methyl-12,12-dioxo-spiro [24-oxa-12lambda6-thia-3,19,30-triazapentacyclo[23.3.1.12, 5.015,23.016,20]triaconta-1(29),2,4,15,17,20,22,25,27-nonaene-10,1′-cyclopropane]-6-yl)phenyl]propanoic acid]",A (a TECC value less than 12 is marked “A”),A (an ΔTagg value less than or equal to 5 °C is marked “A”)
"CC1(c2cccc(CCC(=O)O)c2)CCCC2(CC2)CS(=O)(=O)CCc2c(c(F)cc3[nH]ccc23)Oc2ccc(F)c(c2)-c2ncc1[nH]2 (single isomer, unassigned) [Compound 45B, 3-[3-(22,28-difluoro-6-methyl-12,12-dioxo-spiro [24-oxa-12lambda6-thia-3,19,30-triazapentacyclo[23.3.1.12, 5.015,23.016,20]triaconta-1(29),2,4,15,17,20,22,25,27-nonaene-10,1′-cyclopropane]-6-yl)phenyl]propanoic acid]",A (a TECC value less than 12 is marked “A”),C (a value greater than 10 °C and less than or equal to 25 °C is marked “C”)
"CC1(C)CCCC(C)(c2cccc(OCC(=O)O)c2)c2cnc([nH]2)-c2cc(ccc2F)Oc2c(F)cc3[nH]ccc3c2CCS(=O)(=O)C1 (single isomer, unassigned) [Compound 54A, 2-[3-(22,28-difluoro-6,10,10-trimethyl-12,12-dioxo-24-oxa-12lambda6-thia-3,19,30-triazapentacyclo[23.3.1.12,5.015,23.016,20]triaconta-1(29),2,4,15,17,20,22,25,27-nonaen-6-yl)phenoxy]acetic acid]",C (a value between 20 and 80 is marked “C”),C (a value greater than 10 °C and less than or equal to 25 °C is marked “C”)
"CC1(C)CCCC(C)(c2cccc(OCC(=O)O)c2)c2cnc([nH]2)-c2cc(ccc2F)Oc2c(F)cc3[nH]ccc3c2CCS(=O)(=O)C1 (single isomer, unassigned) [Compound 54B, 2-[3-(22,28-difluoro-6,10,10-trimethyl-12,12-dioxo-24-oxa-12lambda6-thia-3,19,30-triazapentacyclo[23.3.1.12,5.015,23.016,20]triaconta-1(29),2,4,15,17,20,22,25,27-nonaen-6-yl)phenoxy]acetic acid]",A (a TECC value less than 12 is marked “A”),B (a value above 5 °C and less than or equal to 10 °C is marked “B”)
"Cn1nc2nc1C(C)(c1cccc(CCC(=O)O)c1)CCCC(C)(C)CS(=O)(=O)CCc1c(c(F)cc3[nH]ccc13)Oc1ccc(F)c-2c1 (single isomer, unassigned) [Compound 55A, 3-[3-(22,28-difluoro-4,6,10,10-tetramethyl-12,12-dioxo-24-oxa-12 lambda6-thia-3,4,19,30-tetrazapentacyclo[23.3.1.12,5.015,23.016,20]triaconta-1(29),2,5(30),15,17,20,22,25,27-nonaen-6yl)phenyl]propanoic Acid]",A (a TECC value less than 12 is marked “A”),C (a value greater than 10 °C and less than or equal to 25 °C is marked “C”)
"Cn1nc2nc1C(C)(c1cccc(CCC(=O)O)c1)CCCC(C)(C)CS(=O)(=O)CCc1c(c(F)cc3[nH]ccc13)Oc1ccc(F)c-2c1 (single isomer, unassigned) [Compound 55B, 3-[3-(22,28-difluoro-4,6,10,10-tetramethyl-12,12-dioxo-24-oxa-12 lambda6-thia-3,4,19,30-tetrazapentacyclo[23.3.1.12,5.015,23.016,20]triaconta-1(29),2,5(30),15,17,20,22,25,27-nonaen-6yl)phenyl]propanoic Acid]",A (a TECC value less than 12 is marked “A”),B (a value above 5 °C and less than or equal to 10 °C is marked “B”)
"CC1(C)CCCC(C)(c2cccc(CCC(=O)O)c2)c2nc(n[nH]2)-c2cc(ccc2F)Oc2c(F)cc3[nH]ccc3c2CCS(=O)(=O)C1 (single isomer, unassigned) [Compound 63A, 3-[3-(22,28-difluoro-6,10,10-trimethyl-12,12-dioxo-24-oxa-12λ6-thia-3,4,19,30-tetrazapentacyclo[23.3.1.12,5.015,23.016,20]triaconta-1(29),2,5(30),15,17,20,22,25,27-nonaen-6-yl)phenyl]propanoic Acid]",C (a value between 20 and 80 is marked “C”),B (a value above 5 °C and less than or equal to 10 °C is marked “B”)
"CC1(C)CCCC(C)(c2cccc(CCC(=O)O)c2)c2nc(n[nH]2)-c2cc(ccc2F)Oc2c(F)cc3[nH]ccc3c2CCS(=O)(=O)C1 (single isomer, unassigned) [Compound 63B, 3-[3-(22,28-difluoro-6,10,10-trimethyl-12,12-dioxo-24-oxa-12λ6-thia-3,4,19,30-tetrazapentacyclo[23.3.1.12,5.015,23.016,20]triaconta-1(29),2,5(30),15,17,20,22,25,27-nonaen-6-yl)phenyl]propanoic Acid]",C (a value between 20 and 80 is marked “C”),C (a value greater than 10 °C and less than or equal to 25 °C is marked “C”)

# Source: patent publication US12649750B2, “Macrocyclic compounds, compositions, and methods of using thereof” (Sionna Therapeutics Inc., priority 2022, dated 2026)
